Assay: FLIPR Tetra Assay: IC50 (effective concentration) of compounds on the human and rat TRPA1 channels were determined using a FLIPR Tetra instrument. CHO cells expressing TRPA1 were plated into 384-well plates, incubated overnight at 37° C., and loaded with BD calcium indicator dye for 1 hr at 37° C. followed by 15 minutes. at room temperature. The assay buffer was Hank's Balanced Salt Solution (HBSS) containing 20 mM HEPES (pH readjusted to 7.4) along with 0.02% BSA.Following dye load and plate cool down, compounds were added to the cells using FLIPR Tetra. Plates were then incubated with compounds for 20 minutes at room temperature prior to adding agonist. Following this incubation, ˜EC80 concentration of cinnamaldehyde (75 uM for human TRPA1 and 45 uM for rat TRPA1) was added to active the channels and block of cinnamaldehyde induced calcium influx was measured.

Row | IC50 | SMILES
1 | 12.1 nM | O=C(NCc1cc(-c2cnc(C(F)(F)F)nc2)cnc1C(F)(F)F)[C@@H]1C2CC(C2)N1S(=O)(=O)c1ccc(F)cc1
2 | 10.6 nM | O=C(NCc1cc(-c2cnc(C(F)(F)F)nc2)c(F)cn1)[C@@H]1C2CC(C2)N1S(=O)(=O)c1ccc(F)c(F)c1
3 | 6.08 nM | O=C(NCc1cc(-c2cnc(C(F)(F)F)nc2)ncc1Cl)[C@@H]1C2CC(C2)N1S(=O)(=O)c1ccc(F)cc1
4 | 16.3 nM | O=C(NCc1cc(-c2cnc(C(F)(F)F)nc2)ncc1C1CC1)[C@@H]1C2CC(C2)N1S(=O)(=O)c1ccc(F)cc1

— ChEMBL document CHEMBL5727642, “Bicyclic proline compounds” (2020)
